# According to paper PMC10533412, “Phosphoantigens glue butyrophilin 3A1 and 2A1 to activate Vγ9Vδ2 T cells” (Nature, 2023):
# “And” between values parts separate entries of the source, which are not always exact repeats. Identical values can stand only once.
# What was measured:
# BTN2A1 B30.2 domain = BTN2A1 B30.2 domain (Homo sapiens, UniProt Q7KYR7); conditions: ITC
# Experimental: ITC experiments were performed using the MicroCal PEAQ-ITC instrument (GE Healthcare) at 25 °C. We used an initial injection of 0.4 μl followed by 19 injections (2 µl each) at 150 s time intervals. ITC binding fits were calculated using MicroCal Analysis software. The samples were prepared using a buffer (20 mM HEPES pH 7.5, 150 mM NaCl).
# VpBTN2 BFI–VpBTN3 BFI = assay: ITC: VpBTN2 BFI binding to VpBTN3 BFI in the presence of pAg; parameters: species or system alpaca (Vicugna pacos)
# Experimental: (§1) ITC binding fits were calculated using MicroCal Analysis software.
# ITC experiments of HMBPP, DMAPP or IPP binding to the VpBTN3 BFI (or the preconditioned VpBTN3 BFI and VpBTN2 BFI complex) and VpBTN2 BFI (or VpBTN1 BFI) binding to VpBTN3 BFI in the presence of HMBPP, DMAPP or IPP were performed according to the same procedures as for the BTN3A1 B30.2 and BTN2A1 B30.2.
# [1] = molecular target: T1, BTN2A1 B30.2–BTN3A1 B30.2 (Homo sapiens, UniProt O00481+Q7KYR7); assay: Sedimentation velocity AUC of BTN2A1 B30.2 and BTN3A1 B30.2 with or without HMBPP; conditions: SV-AUC
# T1 construct: The BTN3A1 B30.2 domain was expressed and purified as described previously; 6xHis; made in house; host or cells: Escherichia coli BL21 (DE3) for BTN2A1 B30.2
# Experimental: Sedimentation experiments were performed at 20 °C and 45,000 rpm on the Beckman Coulter ProteomeLab XL-I analytical ultracentrifuge according to standard protocols. All of the samples were prepared in the buffer (20 mM HEPES pH 7.5, 150 mM NaCl) and inserted into 12 mm (or 3 mm) Epon centerpieces.
# [2] = molecular target: T2, BTN2A1 B30.2–BTN3A1 B30.2 (Homo sapiens, UniProt O00481+Q7KYR7, R449A/R469A); assay: ITC: BTN2A1 B30.2 (and mutants) binding to BTN3A1 B30.2 in the presence of pAg
# T2 construct: The BTN3A1 B30.2 domain was expressed and purified as described previously; 6xHis; made in house; host or cells: Escherichia coli BL21 (DE3) for BTN2A1 B30.2
# Experimental: as §1
# For the experiments testing the binding of BTN2A1/BTN2A2 B30.2 domain (including their mutants) to the BTN3A1 B30.2 domain with or without HMBPP, BTN3A1 B30.2 (100 µM) and HMBPP (300 µM) were incubated in the buffer at a 1:3 ratio and loaded into the sample cell, and the injection syringe was filled with the buffer containing 1 mM BTN2A1/BTN2A2 B30.2 (including their mutants).
# [3] = system: BTN2A−/− MIA PaCa-2 (BTN2A1/BTN2A2 KO) cells; assay: Cell killing assay with BTN2A−/− MIA PaCa-2 (BTN2A1/BTN2A2 KO) cells expressing BTN2A1/BTN2A2 variants; conditions: for cell killing, Means, Fig. 6e: N 4; for cell killing, single replicate, Fig. 6e: listed as HMBPP
# [4] = 0.1 μM, cells expressing 2A1 (full)
# [5] = 0.1 μM, cells expressing 2A2 B30.2 W374R/M506T (with 2A1 other segments)
# [6] = 0.1 μM, cells expressing 2A2 W374R/M506T (with 2A1 EC)
# [7] = 0.1 μM, cells expressing 2A2 W374R/M506T (wtih 2A1 JM)
# [8] = 0.1 μM, cells expressing 2A2 W374R/M506T
# [9] = 1 μM, cells expressing 2A1 (full)
# [10] = 1 μM, cells expressing 2A2 B30.2 W374R/M506T (with 2A1 other segments)
# [11] = 1 μM, cells expressing 2A2 W374R/M506T (with 2A1 EC)
# [12] = 1 μM, cells expressing 2A2 W374R/M506T (wtih 2A1 JM)
# [13] = 1 μM, cells expressing 2A2 W374R/M506T
# [14] = 10 μM, cells expressing 2A1 (full)
# [15] = 10 μM, cells expressing 2A2 B30.2 W374R/M506T (with 2A1 other segments)
# [16] = 10 μM, cells expressing 2A2 W374R/M506T (with 2A1 EC)
# [17] = 10 μM, cells expressing 2A2 W374R/M506T (wtih 2A1 JM)
# [18] = 10 μM, cells expressing 2A2 W374R/M506T
# [19] = 2A1 WT, source data Ext. Fig. 3c
# [20] = 2A1 ∆C, source data Ext. Fig. 3c
# [21] = Ext. Fig. 6d, cells expressing 2A1 WT, three-parameter fit
# [22] = Ext. Fig. 6d, cells expressing 2A2 G352Y354QR/M506T/W374R, three-parameter fit
# BTN2A1 B30.2 domain, sequence (Q7KYR7 316-527 limits assumed): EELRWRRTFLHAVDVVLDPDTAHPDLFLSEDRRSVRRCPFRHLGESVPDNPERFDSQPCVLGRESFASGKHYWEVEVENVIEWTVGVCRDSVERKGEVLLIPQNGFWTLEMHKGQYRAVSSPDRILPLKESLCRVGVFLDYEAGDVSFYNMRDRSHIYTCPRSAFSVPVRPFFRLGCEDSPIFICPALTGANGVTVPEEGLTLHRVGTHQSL
# T1 sequence (O00481 322-513 limits assumed): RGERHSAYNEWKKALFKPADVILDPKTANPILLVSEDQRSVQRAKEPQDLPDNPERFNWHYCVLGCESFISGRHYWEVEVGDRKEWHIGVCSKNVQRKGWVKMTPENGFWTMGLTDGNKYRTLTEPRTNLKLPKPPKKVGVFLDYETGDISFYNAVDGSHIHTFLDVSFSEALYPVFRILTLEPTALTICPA
# T1 sequence (Q7KYR7 316-527 limits assumed): as the sequence (Q7KYR7 316-527 limits assumed) above
# T2 sequence (O00481 322-513): as the sequence (O00481 322-513 limits assumed) above
# T2 sequence (Q7KYR7 316-527 R449A/R469A): as the sequence (Q7KYR7 316-527 limits assumed) above, with R134A, R154A counted along it
structure (smiles),measurement,setting,value
"C/C(=C\COP(=O)(O)OP(=O)(O)O)CO [Compound 1, (E)-4-hydroxy-3-methylbut-2-en-1-yl diphosphate]",HMBPP binding to BTN2A1 B30.2 domain,BTN2A1 B30.2 domain,does not bind
same,"Binding of VpBTN2 mutants (R475A, T508M and V509A) to VpBTN3 in the presence of HMBPP",VpBTN2 BFI–VpBTN3 BFI,abolished its binding
same,Molecular mass of BTN2A1 B30.2–BTN3A1 B30.2 oligomer formed on addition of HMBPP (tetramer),[1],94.9 kDa
same,Binding of 2A1 B30.2 R449A/R469A to 3A1 B30.2 in the presence of HMBPP,[2],does not bind
same,"cell killing, Means, Fig. 6e","[3]; 0.1 μM, NT cells",15.31
same,"cell killing, single replicate, Fig. 6e","[3]; 0.1 μM, NT cells",16.9534 and 12.1556 and 17.488 and 14.6256
same,"cell killing, Means, Fig. 6e",[3]; [4],43.2
same,"cell killing, single replicate, Fig. 6e",[3]; [4],41.0547 and 41.9242 and 44.3091 and 45.5217
same,"cell killing, Means, Fig. 6e",[3]; [5],37.63
same,"cell killing, single replicate, Fig. 6e",[3]; [5],30.7526 and 48.9339 and 41.228 and 29.5964
same,"cell killing, Means, Fig. 6e",[3]; [6],10.65
same,"cell killing, single replicate, Fig. 6e",[3]; [6],10.0494 and 11.5088 and 9.171 and 11.8833
same,"cell killing, Means, Fig. 6e",[3]; [7],21.79
same,"cell killing, single replicate, Fig. 6e",[3]; [7],18.9096 and 21.2355 and 31.0049 and 16.0148
same,"cell killing, Means, Fig. 6e",[3]; [8],6.989
same,"cell killing, single replicate, Fig. 6e",[3]; [8],8.189 and 6.668 and 2.002 and 11.0964
same,"cell killing, Means, Fig. 6e","[3]; 1 μM, NT cells",19.83
same,"cell killing, single replicate, Fig. 6e","[3]; 1 μM, NT cells",17.72 and 22.5709 and 17.5879 and 21.4385
same,"cell killing, Means, Fig. 6e",[3]; [9],47.49
same,"cell killing, single replicate, Fig. 6e",[3]; [9],44.8999 and 44.0198 and 51.2118 and 49.8148
same,"cell killing, Means, Fig. 6e",[3]; [10],47.88
same,"cell killing, single replicate, Fig. 6e",[3]; [10],42.711 and 50.2729 and 52.3554 and 46.1815
same,"cell killing, Means, Fig. 6e",[3]; [11],18.17
same,"cell killing, single replicate, Fig. 6e",[3]; [11],13.1292 and 15.284 and 20.3978 and 23.864
same,"cell killing, Means, Fig. 6e",[3]; [12],29.03
same,"cell killing, single replicate, Fig. 6e",[3]; [12],27.7855 and 29.0017 and 26.4668 and 32.8608
same,"cell killing, Means, Fig. 6e",[3]; [13],15.67
same,"cell killing, single replicate, Fig. 6e",[3]; [13],11.4295 and 17.9078 and 14.2342 and 19.1099
same,"cell killing, Means, Fig. 6e","[3]; 10 μM, NT cells",24.11
same,"cell killing, single replicate, Fig. 6e","[3]; 10 μM, NT cells",29.5378 and 18.9356 and 23.5884 and 24.3846
same,"cell killing, Means, Fig. 6e",[3]; [14],46.91
same,"cell killing, single replicate, Fig. 6e",[3]; [14],43.2704 and 47.0695 and 47.7293 and 49.5621
same,"cell killing, Means, Fig. 6e",[3]; [15],46.58
same,"cell killing, single replicate, Fig. 6e",[3]; [15],39.3517 and 47.3098 and 45.3387 and 54.323
same,"cell killing, Means, Fig. 6e",[3]; [16],29.48
same,"cell killing, single replicate, Fig. 6e",[3]; [16],34.2513 and 25.8478 and 33.2665 and 24.5352
same,"cell killing, Means, Fig. 6e",[3]; [17],29.83
same,"cell killing, single replicate, Fig. 6e",[3]; [17],29.1476 and 34.1243 and 24.0842 and 31.9573
same,"cell killing, Means, Fig. 6e",[3]; [18],28.16
same,"cell killing, single replicate, Fig. 6e",[3]; [18],27.8321 and 21.0649 and 28.437 and 35.311
same,"Bottom, best-fit value, log(agonist) vs. response (three parameters)",[3]; [19],30.67
same,"LogEC50, best-fit value",[3]; [19],-7.891
same,Span (best-fit value),[3]; [19],32.29
same,"Top, best-fit value, log(agonist) vs. response (three parameters)",[3]; [19],62.96
same,"Bottom, best-fit value, log(agonist) vs. response (three parameters)",[3]; [20],18.53
same,"LogEC50, best-fit value",[3]; [20],-4.358
same,Span (best-fit value),[3]; [20],32.38
same,"Top, best-fit value, log(agonist) vs. response (three parameters)",[3]; [20],50.91
same,Bottom (best-fit value),[3]; [21],37.79
same,Span (best-fit value),[3]; [21],24.09
same,Top (best-fit value),[3]; [21],61.87
same,Bottom (best-fit value),[3]; [22],32.14
same,Span (best-fit value),[3]; [22],22.27
same,Top (best-fit value),[3]; [22],54.4
same,Bottom (best-fit value),"[3]; Ext. Fig. 6d, cells expressing 2A2 G352Y354QR, three-parameter fit",19.82
